# Test system: giant synaptic terminal of depolarizing bipolar cells from the goldfish retina
# Format: cell-based
# Details: n=7
compound,measurement,value
O=C(O)CN(CC(=O)O)c1ccccc1OCCOc1ccccc1N(CC(=O)O)CC(=O)O [BAPTA],increase in area of the footprint triggered by depolarization,completely blocked

# Source: patent US20050009007A1 (priority 2003, published 2005)
